Counter-ions that a name gives are not always drawn.
What was measured:
human KDR = target: T1, human KDR (Homo sapiens, UniProt P35968); test: Inhibitory activity against KDR phosphorylation by ELISA (VEGF-stimulated NIH 3T3 cells expressing human KDR); type: cell-based; conditions: VEGF 100 ng/ml, compound 1 hr, read-out: IC50 (inhibition of KDR phosphorylation)
T1 construct: expressed in transfected cells; host or cells: NIH 3T3 cells (mouse fibroblasts) stably expressing human KDR
Protocol: The harvested cells were inoculated into wells of a collagen-type one-coat 96-well flat-bottom plate, each containing the same medium, in an amount of 1.5×10^4 per well, followed by cultivation at 37° C. overnight. The medium was then replaced by a DMEM medium containing 0.1% fetal calf serum. A solution of a test compound in dimethyl sulfoxide was added to each well, and the cultivation was continued at 37° C. for additional one hr. A human recombinant vascular endothelial growth factor (hereinafter abbreviated to “VEGF”) was added to a final concentration of 100 ng/ml, and the stimulation of cells was carried out at 37° C. for 2 min. The medium was removed, the cells were washed with phosphate buffered saline (pH 7.4), and 50 μl of a solubilization buffer (20 mM HEPES (pH 7.4), 150 mM NaCl, 0.2% Triton X-100, 10% glycerol, 5 mM sodium orthovanadylate, 5 mM disodium ethylenediaminetetraacetate, and 2 mM Na4P2O7) was then added thereto. The mixture was shaken at 4° C. for 2 hr to prepare a cell extract.
Separately, phosphate buffered saline (50 μl, pH 7.4) containing 5 μg/ml of an anti-phospho-tyrosine antibody (PY20; purchased from Transduction Laboratories) was added to a microplate for ELISA (Maxisorp; purchased from NUNC), followed by standing at 4° C. overnight to form a solid phase on the wells. After washing of the plate, 300 μl of a blocking solution was added, followed by standing at room temperature for 2 hr to perform blocking. After washing, the whole quantity of the cell extract was transferred to the wells, and the plate was then allowed to stand at 4° C. overnight. After washing, an anti-KDR antibody (purchased from Santa Cruz) was allowed to react at room temperature for one hr, and, after washing, a peroxidase-labeled anti-rabbit Ig antibody (purchased from Amersham) was allowed to react at room temperature for one hr. After washing, a chromophoric substrate for peroxidase (purchased from Sumitomo Bakelite Co., Ltd.) was added thereto to initiate a reaction. After a suitable level of color development, a reaction termination solution was added to stop the reaction, and the absorbance at 450 nm was measured with a microplate reader. The KDR phosphorylation activity for each well was determined by presuming the absorbance with the addition of VEGF and without the addition of the medicament to be 100% KDR phosphorylation activity and the absorbance without the addition of the medicament and VEGF to be 0% KDR phosphorylation activity.

[1] = tested on: Human pulmonary carcinoma cells (LC-6); test: Antitumor activity against human pulmonary carcinoma cells (LC-6) transplanted into nude mice; type: in vivo; conditions: LC-6 in nude mice, oral 20 mg/kg once a day for 9 days; for inhibition in vivo at 20 mg/kg: Mus musculus, 216 h, read-out: TGIR (tumor growth inhibition rate)
Protocol: Human pulmonary carcinoma cells (LC-6) (obtained from Central Laboratories for Experimental Animals) were transplanted into nude mice. When the tumor volume became about 100 mm^3, the mice were grouped so that each group consisted of four mice and the average tumor volume was even among the groups. A test compound was orally administered at a dose of 20 mg/kg to the test groups every day once a day for 9 days, while only a vehicle was administered to a control group in the manner as in the test groups. The tumor growth inhibition rate (TGIR) was calculated as follows: The tumor growth inhibition rate (TGIR)=(1−TX/CX)×100 wherein CX represents the volume of tumor at day X for the control group when the tumor volume at the first day of the administration was presumed to be 1; and TX represents the tumor volume for test compound administration groups.

T1 sequence (P35968 20-1356): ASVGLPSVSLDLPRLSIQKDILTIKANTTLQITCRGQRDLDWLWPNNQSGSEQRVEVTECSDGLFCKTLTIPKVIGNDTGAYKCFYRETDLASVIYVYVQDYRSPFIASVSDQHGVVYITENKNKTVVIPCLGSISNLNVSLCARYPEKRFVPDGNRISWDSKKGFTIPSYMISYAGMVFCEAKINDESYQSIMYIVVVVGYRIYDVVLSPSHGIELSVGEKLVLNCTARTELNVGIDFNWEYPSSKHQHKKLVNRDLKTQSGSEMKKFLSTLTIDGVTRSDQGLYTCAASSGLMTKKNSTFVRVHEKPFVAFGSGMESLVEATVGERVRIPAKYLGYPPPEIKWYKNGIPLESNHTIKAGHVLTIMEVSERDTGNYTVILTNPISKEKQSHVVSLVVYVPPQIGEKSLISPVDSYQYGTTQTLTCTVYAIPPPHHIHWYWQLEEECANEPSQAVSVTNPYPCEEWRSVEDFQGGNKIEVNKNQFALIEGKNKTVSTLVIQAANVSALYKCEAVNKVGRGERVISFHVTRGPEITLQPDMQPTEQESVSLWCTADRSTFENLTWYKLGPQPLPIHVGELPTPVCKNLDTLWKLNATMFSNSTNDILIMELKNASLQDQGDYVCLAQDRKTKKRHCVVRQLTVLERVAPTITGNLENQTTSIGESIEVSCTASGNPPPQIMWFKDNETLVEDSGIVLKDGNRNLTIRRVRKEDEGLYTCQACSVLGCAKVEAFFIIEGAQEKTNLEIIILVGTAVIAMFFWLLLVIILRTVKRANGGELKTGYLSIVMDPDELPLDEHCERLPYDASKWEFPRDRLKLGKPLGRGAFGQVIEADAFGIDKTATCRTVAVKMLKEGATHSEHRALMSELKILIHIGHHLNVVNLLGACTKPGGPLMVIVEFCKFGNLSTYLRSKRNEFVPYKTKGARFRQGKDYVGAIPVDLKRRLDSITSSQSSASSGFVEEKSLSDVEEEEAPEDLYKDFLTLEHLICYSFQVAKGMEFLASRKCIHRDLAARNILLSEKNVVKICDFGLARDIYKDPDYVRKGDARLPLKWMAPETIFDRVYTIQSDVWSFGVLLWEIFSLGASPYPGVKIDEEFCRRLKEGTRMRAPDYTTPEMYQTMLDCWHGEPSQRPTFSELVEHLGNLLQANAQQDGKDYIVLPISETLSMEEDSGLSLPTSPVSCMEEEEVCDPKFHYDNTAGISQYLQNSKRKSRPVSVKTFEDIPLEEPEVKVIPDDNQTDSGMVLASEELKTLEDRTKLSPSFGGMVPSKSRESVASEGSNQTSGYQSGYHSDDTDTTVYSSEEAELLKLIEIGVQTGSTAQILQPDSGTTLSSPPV

IC50 (human KDR) [nM]	Compound	inhibition in vivo at 20 mg/kg [1] [%]	TGIR (tumor growth inhibition rate) [1] [%]
< 1	COc1cc2nccc(Oc3ccc(NC(=O)Nc4ccon4)cc3F)c2cc1OC [Ex. 3, N-{4-[(6,7-Dimethoxy-4-quinolyl)oxy]-3-fluorophenyl}-N′-(3-isoxazolyl)urea]	39.5	–
< 1	COc1cc2nccc(Oc3ccc(NC(=O)Nc4cc(C)no4)c(Cl)c3)c2cc1OC [Ex. 5, N-{2-Cloro-4-[(6,7-dimethoxy-4-quinolyl)oxy]phenyl}-N′-(3-methyl-5-isoxazolyl)urea]	–	29.5
< 1	COc1cc2nccc(Oc3ccc(NC(=O)Nc4cc(C)no4)c(F)c3)c2cc1OC [Ex. 6, N-{4-[(6,7-Dimethoxy-4-quinolyl)oxy]-2-fluorophenyl}-N′-(3-methyl-5-isoxazolyl)urea]	29.3	–
0.2	COc1cc2nccc(Oc3ccc(NC(=O)Nc4cc(C)on4)c(F)c3)c2cc1OC [Ex. 9, N-{4-[(6,7-Dimethoxy-4-quinolyl)oxy]-2-fluorophenyl}-N′-(5-methyl-3-isoxazolyl)urea]	63.5	–
0.4	COc1cc2nccc(Oc3ccc(NC(=O)Nc4ncc(C)s4)c(F)c3)c2cc1OC [Ex. 21, N-{4-[(6,7-Dimethoxy-4-quinolyl)oxy]-2-fluorophenyl}-N′-(5-methyl-1.3-thiazol-2-yl)urea hydrochloride]	66.6	–
< 1	COc1cc2nccc(Oc3ccc(NC(=O)Nc4nc(C)cs4)c(Cl)c3)c2cc1OC [Ex. 22, N-{2-Chloro-4-[(6,7-dimethoxy-4-quinolyl)oxy]phenyl}-N′-(4-methyl-1,3-thiazol-2-yl)urea]	43.8	–
< 1	COc1cc2nccc(Oc3ccc(NC(=O)Nc4nc(C)c(C)s4)c(F)c3)c2cc1OC [Ex. 23, N-{4-[(6,7-Dimethoxy-4-quinolyl)oxy]-2-fluorophenyl}-N′-(4,5-dimethyl-1,3-thiazol-2-yl)urea]	51.7	–
1	COc1cc2nccc(Oc3ccc(NC(=O)Nc4nc(C)c(C)s4)c(Cl)c3)c2cc1OC [Ex. 24, N-{2-Chloro-4-[(6,7-dimethoxy-4-quinolyl)oxy]phenyl}-N′-(4,5-dimethyl-1,3-thiazol-2-yl)urea]	39.8	–
1.9	COc1cc2nccc(Oc3ccc(NC(=O)Nc4nc(C)c(C)s4)cc3Cl)c2cc1OC [Ex. 25, N-{3-Chloro-4-[(6,7-dimethoxy-4-quinolyl)oxy]phenyl}-N′-(4,5-dimethyl-1,3-thiazol-2-yl)urea]	18.8	–
49.4	CCOC(=O)Cc1csc(NC(=O)Nc2ccc(Oc3ccnc4cc(OC)c(OC)cc34)cc2F)n1 [Ex. 29, Ethyl 2-{2-[({4-[(6,7-dimethoxy-4-quinolyl)oxy]-2-fluoroanilino}carbonyl)amino]-1,3-thiazol-4-yl}acetate]	66.1	–
< 1	COc1cc2ncnc(Oc3ccc(NC(=O)Nc4ncc(C)s4)c(Cl)c3)c2cc1OC [Ex. 39, N-{2-Chloro-4-[(6,7-dimethoxy-4-quinazolinyl)oxy]phenyl}-N′-(5-methyl-1,3-thiazol-2-yl)urea]	64	–
< 1	COc1cc2ncnc(Oc3ccc(NC(=O)Nc4nc(C)c(C)s4)c(Cl)c3)c2cc1OC [Ex. 40, N-{2-Chloro-4-[(6,7-dimethoxy-4-quinazolinyl)oxy]phenyl}-N′-(4,5-dimethyl-1,3-thiazol-2-yl)urea]	34.2	–
6.3	COc1cc2nccc(Oc3ccc(NC(=O)Nc4nnc(C(F)(F)F)s4)cc3)c2cc1OC [Ex. 50, N-{4-[(6,7-Dimethoxy-4-quinolyl)oxy]phenyl}-N′-[5-(trifluoromethyl)-1,3,4-thiadiazol-2-yl]urea]	11.9	–
3.7	COc1cc2nccc(Oc3ccc(NC(=O)Nc4nnc(C(F)(F)F)s4)c(F)c3)c2cc1OC [Ex. 51, N-{4-[(6,7-Dimethoxy-4-quinolyl)oxy]-2-fluorophenyl}-N′-[5-(trifluoromethyl)-1,3,4-thiadiazol-2-yl]urea]	45.6	–
13	COc1cc2nccc(Oc3ccc(NC(=O)Nc4nnc(C(F)(F)F)s4)cc3F)c2cc1OC [Ex. 52, N-{4-[(6,7-Dimethoxy-4-quinolyl)oxy]-3-fluorophenyl}-N′-[5-(trifluoromethyl)-1,3,4-thiadiazol-2-yl]urea]	20.7	–
1.2	COc1cc2nccc(Oc3ccc(NC(=O)Nc4nnc(C(F)(F)F)s4)c(C)c3C)c2cc1OC [Ex. 53, N-{4-[(6,7-Dimethoxy-4-quinolyl)oxy]-2,3-dimethylphenyl}-N′-[5-(trifluoromethyl)-1,3,4-thiadiazol-2-yl]urea]	14.4	–
1.5	CCc1nnc(NC(=O)Nc2ccc(Oc3ccnc4cc(OC)c(OC)cc34)c(F)c2)s1 [Ex. 64, N-{4-[(6,7-Dimethoxy-4-quinolyl)oxy]-3-fluorophenyl}-N′-(5-ethyl-1,3,4-thiadiazol-2-yl)urea]	–	–
< 1	CCc1nnc(NC(=O)Nc2ccc(Oc3ccnc4cc(OC)c(OC)cc34)cc2Cl)s1 [Ex. 65, N-{2-Chloro-4-[(6,7-dimethoxy-4-quinolyl)oxy]phenyl}-N′-(5-ethyl-1,3,4-thiadiazol-2-yl)urea]	–	–
3.7	CCc1nnc(NC(=O)Nc2ccc(Oc3ccnc4cc(OC)c(OC)cc34)c(Cl)c2)s1 [Ex. 66, N-{3-Chloro-4-[(6,7-dimethoxy-4-quinolyl)oxy]phenyl}-N′-(5-ethyl-1,3,4-thiadiazol-2-yl)urea]	–	–
2.4	COc1cc2nccc(Oc3ccc(NC(=O)Nc4nnc(C5CC5)s4)c(Cl)c3)c2cc1OC [Ex. 67, N-{2-Chloro-4-[(6,7-dimethoxy-4-quinolyl)oxy]phenyl}-N′-(5-cyclopropyl-1,3,4-thiadiazol-2-yl)urea]	–	–
18	COc1cc2nccc(Oc3ccc(NC(=O)Nc4nnc(C5CC5)s4)cc3Cl)c2cc1OC [Ex. 68, N-{3-Chloro-4-[(6,7-dimethoxy-4-quinolyl)oxy]phenyl}-N′-(5-cyclopropyl-1,3,4-thiadiazol-2-yl)urea]	–	–
2.2	CCSc1nnc(NC(=O)Nc2ccc(Oc3ccnc4cc(OC)c(OC)cc34)cc2F)s1 [Ex. 70, N-{4-[(6,7-Dimethoxy-4-quinolyl)oxy]-2-fluorophenyl}-N′-[5-(ethylsulfanyl)-1,3,4-thiadiazol-2-yl]urea]	–	–
3.1	CCSc1nnc(NC(=O)Nc2ccc(Oc3ccnc4cc(OC)c(OC)cc34)c(C)c2C)s1 [Ex. 71, N-{4-[(6,7-Dimethoxy-4-quinolyl)oxy]-2,3-dimethylphenyl}-N′-[5-(ethylsulfanyl)-1,3,4-thiadiazol-2-yl]urea]	–	–
2.9	COc1cc2nccc(Oc3ccc(NC(=O)Nc4nnc(C(F)(F)F)s4)c(Cl)c3)c2cc1OC [Ex. 72, N-{2-Chloro-4-[(6,7-dimethoxy-4-quinolyl)oxy]phenyl}-N′-[5-(trifluoromethyl)-1,3,4-thiadiazol-2-yl]urea]	–	–
21	COc1cc2nccc(Oc3ccc(NC(=O)Nc4nnc(C(F)(F)F)s4)cc3Cl)c2cc1OC [Ex. 73, N-{3-Chloro-4-[(6,7-dimethoxy-4-quinolyl)oxy]phenyl}-N′-[5-(trifluoromethyl)-1,3,4-thiadiazol-2-yl]urea]	–	–
3	COc1cc2nccc(Oc3ccc(NC(=O)Nc4nnc(C(C)(C)C)s4)c(F)c3)c2cc1OC [Ex. 74, N-[5-(Tert-butyl)-1,3,4-thiadiazol-2-yl]-N′-{4-[(6,7-dimethoxy-4-quinolyl)oxy]-2-fluorophenyl}urea]	–	–
4.5	COc1cc2nccc(Oc3ccc(NC(=O)Nc4nnc(C(C)(C)C)s4)c(C)c3C)c2cc1OC [Ex. 75, N-[5-(Tert-butyl)-1,3,4-thiadiazol-2-yl]-N′-{4-[(6,7-dimethoxy-4-quinolyl)oxy]-2,3-dimethylphenyl}-urea]	–	–
